Measured values published in patent publication US20170087174A1, “COMBINATION THERAPY REGIMEN FOR TREATMENT OF HCV” (JANSSEN PHARMACEUTICALS, INC., priority 2015, published 2017).
Like-named read-outs stand apart in the source and are kept apart here.

Key:
[1] = Phase-1 drug-drug interaction study in healthy volunteers (Compound (III) 800 mg, SMV 150 mg, Odalasvir 150 mg loading then 50 mg, once daily): plasma PK; assay type: in vivo, human; settings: both, human, in vivo
From the text: The following daily doses were employed:

OATP1B1 = biological target: T1, OATP1B1 (Homo sapiens, UniProt Q9Y6L6); settings: in vitro, cited from earlier work
T1 sequence (Q9Y6L6 1-691): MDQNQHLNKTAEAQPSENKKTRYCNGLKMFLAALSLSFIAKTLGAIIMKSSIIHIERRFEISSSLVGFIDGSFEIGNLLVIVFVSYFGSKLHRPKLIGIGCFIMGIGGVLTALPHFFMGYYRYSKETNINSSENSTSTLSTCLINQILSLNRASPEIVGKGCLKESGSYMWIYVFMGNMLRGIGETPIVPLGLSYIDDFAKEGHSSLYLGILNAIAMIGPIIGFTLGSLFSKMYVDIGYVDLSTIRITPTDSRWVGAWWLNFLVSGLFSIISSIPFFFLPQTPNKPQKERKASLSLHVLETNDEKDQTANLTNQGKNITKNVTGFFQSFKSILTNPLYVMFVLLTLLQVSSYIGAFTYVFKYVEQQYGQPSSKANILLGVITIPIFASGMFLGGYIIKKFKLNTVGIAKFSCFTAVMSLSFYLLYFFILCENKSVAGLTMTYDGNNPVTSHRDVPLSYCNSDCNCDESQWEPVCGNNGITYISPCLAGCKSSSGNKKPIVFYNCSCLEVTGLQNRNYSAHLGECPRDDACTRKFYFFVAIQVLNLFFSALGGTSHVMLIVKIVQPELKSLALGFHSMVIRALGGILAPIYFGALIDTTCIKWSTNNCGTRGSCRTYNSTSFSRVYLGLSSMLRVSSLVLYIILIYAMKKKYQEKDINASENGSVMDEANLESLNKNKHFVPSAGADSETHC

[2] = tested on: CYP (cytochrome P450 enzymes); experiment: CYP inhibition in vitro; settings: on any CYP
[3] = PK of single agents vs fixed dose combinations (FDC), single oral dose in healthy volunteers; assay type: in vivo, human; settings: for Cmax / AUC(0-t) / AUC(0-inf) / Tmax: human, plasma, oral; for Cmax: read-out: Cmax (mean ± SD); for AUC(0-t): read-out: AUClast (mean ± SD); for AUC(0-inf): read-out: AUC∞ (mean ± SD); for Tmax: read-out: tmax (median [range])
Method: SMV (100 mg), ODV (50 mg), and Compound (III) (800 mg) were administered as three different formulations or together as single doses in vivo to healthy volunteers. The arms of the study included: • Arm 1 (Reference Arm): Single oral doses of single agents, one SMV 100-mg capsule, one ODV 50-mg tablet as granule layered solid dispersion with copovidone and poloxamers, and two Compound (III) 400-mg tablets, administered together. • Arm 2: Single oral dose of fixed dose combination (FDC02): SMV 100 mg+ODV 50 mg as a spray dried solid dispersion with HPMC-AS L in a ratio ODV/HPMC-AS L 1/1 w/w+Compound (III) 800 mg • Arm 3: Single oral dose of fixed dose combination (FDC04): SMV 100 mg+ODV 50 mg as a spray dried solid dispersion with HPMC-AS L in a ratio ODV/HPMC-AS L 1/3 w/w+Compound (III) 800 mg • Arm 4: Single oral dose of fixed dose combination (FDC01): SMV 100 mg+ODV 50 mg as a spray dried solid dispersion with copovidone and poloxamers+Compound (III) 800 mg
PK parameters, including Cmax, tmax, AUClast, and AUC∞ were measured for Compound (III), ODV, SMV, and metabolites Compound A-I and Compound A-3 for each Arm of the study. Arms that included fixed dose combinations (FDC) (Arm 2, Arm 3, and Arm 4) were then compared to a single oral dose (Arm 1, the reference Arm). Table 9, Table 10, Table 11, Table 12 and Table 13 display relevant PK parameters and FIG. 9, FIG. 10, FIG. 11, FIG. 12, and FIG. 13 depict the plasma concentration over time of SMV, ODV, Compound A-1, and Compound A-3 for each Arm of the study.

P-gp = P-gp (Homo sapiens, UniProt P08183); settings: in vitro; cited from earlier work
[4] = Arm 1 (reference): single agents together
[5] = Arm 2 (FDC02) vs reference (Arm 1)
[6] = Arm 3 (FDC04) vs reference (Arm 1)
[7] = Arm 4 (FDC01) vs reference (Arm 1)

P-gp, sequence (P08183 whole entry): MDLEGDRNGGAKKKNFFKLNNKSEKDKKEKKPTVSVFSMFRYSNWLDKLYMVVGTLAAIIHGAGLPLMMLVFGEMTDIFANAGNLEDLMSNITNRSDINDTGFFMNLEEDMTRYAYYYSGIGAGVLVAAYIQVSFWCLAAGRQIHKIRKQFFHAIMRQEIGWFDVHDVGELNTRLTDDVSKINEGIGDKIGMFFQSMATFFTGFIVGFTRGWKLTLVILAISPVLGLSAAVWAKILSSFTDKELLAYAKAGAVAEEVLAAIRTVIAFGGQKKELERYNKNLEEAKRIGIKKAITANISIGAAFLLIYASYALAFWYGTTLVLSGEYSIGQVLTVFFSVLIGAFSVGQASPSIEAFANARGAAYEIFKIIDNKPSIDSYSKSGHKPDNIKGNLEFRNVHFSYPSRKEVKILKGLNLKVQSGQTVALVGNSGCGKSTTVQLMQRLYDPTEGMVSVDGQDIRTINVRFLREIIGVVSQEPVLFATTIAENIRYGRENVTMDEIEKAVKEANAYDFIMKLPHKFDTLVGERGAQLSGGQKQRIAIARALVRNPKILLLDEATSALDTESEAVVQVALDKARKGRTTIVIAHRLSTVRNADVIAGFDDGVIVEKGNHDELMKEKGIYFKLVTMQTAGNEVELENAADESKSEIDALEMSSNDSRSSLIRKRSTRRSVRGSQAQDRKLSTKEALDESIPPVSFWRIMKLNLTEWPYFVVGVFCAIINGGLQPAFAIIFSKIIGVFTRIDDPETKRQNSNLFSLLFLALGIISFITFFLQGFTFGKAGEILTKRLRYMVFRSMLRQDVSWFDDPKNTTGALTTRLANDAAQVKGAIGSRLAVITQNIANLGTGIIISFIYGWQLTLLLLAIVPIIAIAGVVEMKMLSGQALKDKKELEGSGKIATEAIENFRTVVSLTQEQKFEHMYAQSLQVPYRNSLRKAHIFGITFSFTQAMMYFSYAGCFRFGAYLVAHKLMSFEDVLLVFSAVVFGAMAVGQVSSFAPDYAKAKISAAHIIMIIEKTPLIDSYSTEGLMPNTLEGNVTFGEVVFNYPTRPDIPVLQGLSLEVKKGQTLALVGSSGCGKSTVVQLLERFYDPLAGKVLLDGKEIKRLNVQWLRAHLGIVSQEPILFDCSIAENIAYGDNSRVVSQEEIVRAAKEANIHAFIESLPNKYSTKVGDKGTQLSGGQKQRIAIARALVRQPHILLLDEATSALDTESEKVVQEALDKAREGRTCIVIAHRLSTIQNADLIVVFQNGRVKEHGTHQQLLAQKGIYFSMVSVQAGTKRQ

Compound: COc1ccc2c(O[C@@H]3C[C@H]4C(=O)N[C@]5(C(=O)NS(=O)(=O)C6CC6)C[C@H]5/C=C\CCCCN(C)C(=O)[C@@H]4C3)cc(-c3nc(C(C)C)cs3)nc2c1C [SMV, Simeprevir, reference compound]
- AUC0-24 [1]: 41258 ng·h/mL
- Cmax [1]: 2957 ng/mL
- OATP1B1 inhibition (in words) (OATP1B1): strong in vitro inhibition
- IC50 (OATP1B1; read-out: OATP1B1 inhibition IC50): 300 nM
- CYP inhibition potential (in words) [2]: limited
- t1/2term (mean ± SD) [3, 4]: 8.3 ± 1.8 h
- Least Square Means Ratio, AUClast [3, 5]: 127.79%
- Least Square Means Ratio, AUC∞ [3, 5]: 126.19%
- Least Square Means Ratio, Cmax [3, 5]: 116.50%
- t1/2term (mean ± SD) ([3]; Arm 2: FDC02): 8.7 ± 2.3 h
- Least Square Means Ratio, AUClast [3, 6]: 133.85%
- Least Square Means Ratio, AUC∞ [3, 6]: 132.28%
- Least Square Means Ratio, Cmax [3, 6]: 115.24%
- t1/2term (mean ± SD) ([3]; Arm 3: FDC04): 9.1 ± 1.6 h
- Least Square Means Ratio, AUClast [3, 7]: 117.50%
- Least Square Means Ratio, AUC∞ [3, 7]: 116.00%
- Least Square Means Ratio, Cmax [3, 7]: 108.22%
- t1/2term (mean ± SD) ([3]; Arm 4: FDC01): 8.5 ± 1.5 h
- Cmax ([3]; Arm 1 (reference): single agents together, SMV 100-mg capsule, ODV 50-mg tablet, two Compound (III) 400-mg tablets): 777 ± 225 ng/mL
- AUC(0-t) [3, 4]: 9420 ± 3380 ng·h/mL
- AUC(0-inf) [3, 4]: 9920 ± 3430 ng·h/mL
- Tmax [3, 4]: 6 h
- Cmax ([3]; Arm 2: FDC02, SMV 100 mg + ODV 50 mg (ODV/HPMC-AS L 1/1 w/w) + Compound (III) 800 mg): 942 ± 431 ng/mL
- AUC(0-t) ([3]; Arm 2: FDC02): 12700 ± 6260 ng·h/mL
- AUC(0-inf) ([3]; Arm 2: FDC02): 13200 ± 6430 ng·h/mL
- Tmax ([3]; Arm 2: FDC02): 6 h
- Cmax ([3]; Arm 3: FDC04, SMV 100 mg + ODV 50 mg (ODV/HPMC-AS L 1/3 w/w) + Compound (III) 800 mg): 906 ± 321 ng/mL
- AUC(0-t) ([3]; Arm 3: FDC04): 12900 ± 5830 ng·h/mL
- AUC(0-inf) ([3]; Arm 3: FDC04): 13400 ± 6020 ng·h/mL
- Tmax ([3]; Arm 3: FDC04): 6 h
- Cmax ([3]; Arm 4: FDC01, SMV 100 mg + ODV 50 mg (copovidone and poloxamers) + Compound (III) 800 mg): 856 ± 318 ng/mL
- AUC(0-t) ([3]; Arm 4: FDC01): 11600 ± 6300 ng·h/mL
- AUC(0-inf) ([3]; Arm 4: FDC01): 12100 ± 6410 ng·h/mL
- Tmax ([3]; Arm 4: FDC01): 6 h
- P-gp inhibition (in words) (P-gp): strong/moderate
